Each molecule was assayed on type I collagen deposition in primary lung fibroblasts (assay: Highthroughput type I collagen deposition (scar-in-a-jar) high content screening assay). Details: Homo sapiens, Primary lung fibroblast, 72 h, human pulmonary fibroblasts, TGF-β 1 ng/ml, Ficoll crowding, mean of multiple experiments, read-out: mean pIC50, inhibition of type I collagen deposition (converted).
Assay type: cell-based
Method: Example 53 Highthroughput Type I Collagen Deposition (Scar-in-a-Jar) High Content Screening Assay
Highthroughput, cellular type I collagen deposition was measured by adapting a published method; scar-in-a-jar (Chen et al., 2009) to primary lung fibroblasts derived from human tissue and combining with high content analysis to permit fluorescent quantification of collagen deposited in the extracellular matrix (ECM). The human biological samples were sourced ethically and their research use was in accord with the terms of the informed consents
Test compounds were dissolved in 100% DMSO to give 10 mM (stocks) and further diluted to give half log dilutions to generate an 11 point concentration response curve. 1 ul was transferred to 384-well plates (Greiner Group, Kremsmunster, Austria, Catalogue No Greine 781280r).
Human pulmonary fibroblasts were maintained in DMEM media (Gibco, Catalogue No 21969) supplemented with 4 mM L-glutamine (Gibco Catalogue No 25030-024) and 10% heat inactivated FBS (Gibco, Catalogue No 10099-141) at 37° C. in 10% CO2. Cells were harvested and resuspended at 4×10^6 cells/ml in a T175 cell culture flask (BD Falcom, Catalogue No: 353112) containing 50 mL of culture media. After 4 days 37° C. in 10% CO2, cells were harvested and seeded at 4000 cells per well (50 μL/well) into 384-well plates (BD Falcon, Catalogue No 353962Greiner) in assay media (0.4% heat inactivated FBS, 4 mM L-glutamine). Plates were sealed with breathable seals (Sigma, Catalogue No. BEM-1). Assay plates were incubated for 72 h at 37° C. in 10% CO2.
Assay media was supplemented with 112.5 mg/ml Ficoll 70 (Sigma, Catalogue No F2878), 75 mg/ml Ficoll 400 (Sigma, Catalogue No F4375) and 50 μg/ml ascorbic acid (Sigma, Catalogue No A8960). 30 μL assay media were added to 1 μl compound (37 μM compound concentration in 1% DMSO). Diluted compounds (10 μL) were transferred to plates containing cells and incubated for 3 h at 37° C. in 10% CO2. Transforming growth factor (TGF)-β (R&D systems, Catalogue No 100-B/CF) was reconstituted to give 10 μg/mL (stock) and further diluted in assay media containing Ficoll and ascorbic acid (1 in 3333). TGF-β was added to cell plates (1 ng/ml final) and cells incubated for 72 h at 37° C. in 10% CO2.
Media was aspirated from cells and 30 μL/well 100% ice-cold methanol added and incubated at RT for 5 min to fix cells. Methanol was aspirated and cells washed with PBS (3×). To block and permeabilise, cells were incubated with PBS containing 1% BSA and 0.1% Triton X 100 for 20 min, followed by PBS wash (3×). Cells were incubated with mouse anti human type I collagen monoclonal antibody (Sigma, Catalogue No C2456) diluted 1:1000 in PBS for 24 h at 4° C. Cells were washed with PBS containing 0.1% Tween-20 (3×) and incubated with secondary alexa fluor 488 goat-anti-mouse antibody (Invitrogen, Catalogue No A11001, 1 in 500 in PBS) and Hoechst 33342 (Sigma, Catalogue No H21492), 1 in 1000 in PBS) for 1 h at RT, prior to washing with PBS containing 0.1% Tween (×4).
Type I collagen immunoreactivity was detected using the INCell 2000 Analyzer (GE Healthcare, INcell 2000) set to excitation and emission wavelengths for DAPI and FITC with laser focus and exposure adjusted to appropriate levels. Images were imported and analysed using Columbus software (Perkin Elmer) and computational algorithms to quantify “total collagen area” and “cell count”.
Data analysis was performed by determining % inhibition values for test compounds relative to the minimum (media only) and maximum responses (TGF-βstimulation) with non-linear regression analysis to determine IC50 values for test compounds.

Q: How did the IC50 turn out when `CC[C@H]1COCCN1c1cc(CS(=O)(=O)NC)cc(-c2ccc3[nH]c(CNC)cc3n2)n1` [Example 30, 1-{2-[(3S)-3-ethylmorpholin-4-yl]-6-{2-[(methylamino)methyl]-1H-pyrrolo[3,2-b]pyridin-5-yl}pyridin-4-yl}-N-methylmethanesulfonamide] was run?
A: 39.8 to 1000 nM

Q: Which IC50 does the source give for `CC[C@H]1COCCN1c1cc(CS(=O)(=O)N(C)C)cc(-c2ccc3[nH]c(CO)cc3n2)n1` [Example 35, 1-{2-[(3S)-3-ethylmorpholin-4-yl]-6-[2-(hydroxymethyl)-1H-pyrrolo[3,2-b]pyridin-5-yl]pyridin-4-yl}-N,N-dimethylmethanesulfonamide] here?
A: 39.8 to 1000 nM

Q: For `CC[C@H]1COCCN1c1cc(C(C)(C)S(N)(=O)=O)cc(-c2ccc3[nH]c(CNC)cc3n2)n1` [Example 28, 2-{2-[(3S)-3-ethylmorpholin-4-yl]-6-{2-[(methylamino)methyl]-1H-pyrrolo[3,2-b]pyridin-5-yl}pyridin-4-yl}propane-2-sulfonamide], which IC50 is on record?
A: 39.8 to 1000 nM
